# Where a name gives a salt, the structure may show the parent alone.
# Tested on: patients who meet the 1990 ACR criteria for fibromyalgia syndrome
# Test: Example 2: multicenter, double-blind, randomized, placebo-controlled monotherapy study of milnacipran for treatment of fibromyalgia (1196 patients)
# Assay type: in vivo, human
# Set-up: Mean Change from Baseline in PFI SF-36 domain score / Mean Change from Baseline in ROLP SF-36 domain score / Mean Change from Baseline in PAIN SF-36 domain score / Mean Change from Baseline in GHP SF-36 domain score: scale not given here
# Details: for Composite Pain: number of responders / Composite Syndrome: number of responders / PGIC Component: number of responders / Pain Component: number of responders / SF36 PCS Component: number of responders: 100 mg (399); for time-weighted average (AUC) of SF-36 PCS Scores, Difference from Placebo / time-weighted average (AUC) of SF-36 PCS Scores, LS Mean: Tx3-Tx15, ANCOVA model
# Protocol: The primary outcome was a composite responder analysis assessing response rates of two doses (100 mg/day and 200 mg/day) of milnacipran as compared with placebo at Visit Tx15 (week 15).
# This was a multicenter, randomized, double-blind, placebo-controlled three-arm study designed which enrolled 1196 patients who meet the 1990 ACR criteria for fibromyalgia syndrome (history of widespread pain and pain in 11 of 18 tender point sites on digital palpation), as well as the more detailed admission criteria outlined in the protocol.
# Patients were randomized to receive placebo, 100 mg/day milnacipran or 200 mg/day milnacipran in a ratio of 1:1:1 (placebo=401 patients, 100 mg/day=399 patients, 200 mg/day=396 patients). The patients assigned to the two active treatment arms received a total of 12 weeks of stable-dose milnacipran exposure after the 3 weeks of dosage escalation steps, for a total of 15 weeks of drug exposure. All randomized medications (placebo and milnacipran) were administered twice a day (BID).
# The primary efficacy assessment of this study was a composite responder status defined by three domains of interest evaluated at visit Tx15. The domains measured were
# 1) pain (measured by an electronic diary in the morning as a daily recall pain score); 2) patient global (measured by the PGIC, 1-7 scale); 3) physical function (measured by the SF-36 PCS).
# The secondary efficacy parameters were time-weighted average (AUC) of the weekly average PED morning recall pain scores for Weeks 4 through 15, PGIC, and SF-36 PCS for Visit Tx3 to Visit Tx15.
# The physical function domain for response analysis was measured by the Physical Component Summary of SF-36 (SF-36 PCS). The SF-36 is a brief, well-established, self-administered patient questionnaire for the assessment of health status, functional status, and quality of life. The SF-36 measures eight domains of health status: physical functioning, role limitations due to physical problems, bodily pain, general health perceptions, energy/vitality, social functioning, role limitations due to emotional problems, and mental health. An SF-36 PCS score and a mental component summary (MCS) score can be calculated by combining and weighting the various individual scales. The PCS and MCS scores have been standardized to have a mean=50, SD=10 in the general healthy US population (see, e.g., Ware, J., M. Kosinski, and J. Dewey, How to Score Version 2 of the SF-36 Health Survey (Standard & Acute Forms). 3rd ed. 2000, Lincoln, R.I.: QualityMetric).
# A patient was classified as a responder for the treatment of pain of fibromyalgia if he or she reached Visit Tx15 and satisfied the following criteria: • Greater than or equal to 30% in pain reduction from baseline; • PGIC rated as “much or very much improved,” (i.e., a score of 1 or 2 on the 1-7 scale at endpoint.)
# A patient was classified as a responder for the treatment of FMS if he or she satisfied the responder criteria for the treatment of pain of fibromyalgia and the following additional criterion (at visit Tx15): • Improvement on the SF-36 PCS score from baseline by an amount at least equivalent to the minimal clinically important difference, as defined in the Statistical Analysis Plan.
# Table 6 summarizes 3-month results for the Baseline Observation Carried Forward (BOCF), Last Observation Carried Forward (LOCF) and study completer (OC) populations. LOCF is an analysis in which observations are carried forward to the last time point for patients who dropped out. The LOCF analysis treats the carried-forward data as observed data at the last time point. BOCF is an analysis that requires that the patient remain active in the trial to be evaluated for response. If a patient withdrew from the trial for any reason, they were classified as a non-responder irregardless of their pain and global scores at the time of withdrawal. […]
# [1] = 100 mg, Visits Tx3-Tx15, LOCF, intent to treat
smiles,measurement,setting,value
"CCN(CC)C(=O)C1(c2ccccc2)CC1CN (racemic) [milnacipran, Z-2-aminomethyl-1-phenyl-N,N-diethylcyclopropanecarboxamide hydrochloride]",Composite Pain: number of responders,"3-months, BOCF",91
same,Composite Syndrome: number of responders,"3-months, BOCF",58
same,PGIC Component: number of responders,"3-months, BOCF",125
same,Pain Component: number of responders,"3-months, BOCF",124
same,SF36 PCS Component: number of responders,"3-months, BOCF",108
same,Composite Pain: number of responders,"3-months, LOCF",103
same,Composite Syndrome: number of responders,"3-months, LOCF",65
same,PGIC Component: number of responders,"3-months, LOCF",138
same,Pain Component: number of responders,"3-months, LOCF",149
same,SF36 PCS Component: number of responders,"3-months, LOCF",129
same,physical function in patients with fibromyalgia compared to placebo (in words),100 mg or 200 mg,surprisingly and effectively improves physical function
same,Composite Pain: responder rate,"100 mg, 3-months, BOCF",(22.81%)
same,Composite Pain: responder rate difference from placebo (unlabelled line),"100 mg, 3-months, BOCF",6.35%
same,Composite Syndrome: responder rate,"100 mg, 3-months, BOCF",(14.54%)
same,Composite Syndrome: responder rate difference from placebo (unlabelled line),"100 mg, 3-months, BOCF",5.81%
same,PGIC Component: responder rate,"100 mg, 3-months, BOCF",(31.33%)
same,PGIC Component: responder rate difference from placebo (unlabelled line),"100 mg, 3-months, BOCF",8.39%
same,Pain Component: responder rate,"100 mg, 3-months, BOCF",(31.08%)
same,Pain Component: responder rate difference from placebo (unlabelled line),"100 mg, 3-months, BOCF",5.89%
same,SF36 PCS Component: responder rate,"100 mg, 3-months, BOCF",(27.07%)
same,SF36 PCS Component: responder rate difference from placebo (unlabelled line),"100 mg, 3-months, BOCF",5.62%
same,Composite Pain: responder rate,"100 mg, 3-months, LOCF",(25.81%)
same,Composite Pain: responder rate difference from placebo (unlabelled line),"100 mg, 3-months, LOCF",7.61%
same,Composite Syndrome: responder rate,"100 mg, 3-months, LOCF",(16.29%)
same,Composite Syndrome: responder rate difference from placebo (unlabelled line),"100 mg, 3-months, LOCF",6.56%
same,PGIC Component: responder rate,"100 mg, 3-months, LOCF",(34.59%)
same,PGIC Component: responder rate difference from placebo (unlabelled line),"100 mg, 3-months, LOCF",9.65%
same,Pain Component: responder rate,"100 mg, 3-months, LOCF",(37.34%)
same,Pain Component: responder rate difference from placebo (unlabelled line),"100 mg, 3-months, LOCF",8.66%
same,SF36 PCS Component: responder rate,"100 mg, 3-months, LOCF",(32.33%)
same,SF36 PCS Component: responder rate difference from placebo (unlabelled line),"100 mg, 3-months, LOCF",6.89%
same,Composite Pain: m/n = # of responders/# of patients included,"100 mg, 3-months, OC",91/236
same,Composite Pain: responder rate,"100 mg, 3-months, OC",(38.56%)
same,Composite Pain: responder rate difference from placebo (unlabelled line),"100 mg, 3-months, OC",13.37%
same,Composite Syndrome: m/n = # of responders/# of patients included,"100 mg, 3-months, OC",58/236
same,Composite Syndrome: responder rate,"100 mg, 3-months, OC",(24.58%)
same,Composite Syndrome: responder rate difference from placebo (unlabelled line),"100 mg, 3-months, OC",11.22%
same,PGIC Component: m/n = # of responders/# of patients included,"100 mg, 3-months, OC",125/263
same,PGIC Component: responder rate,"100 mg, 3-months, OC",(47.53%)
same,PGIC Component: responder rate difference from placebo (unlabelled line),"100 mg, 3-months, OC",15.70%
same,Pain Component: m/n = # of responders/# of patients included,"100 mg, 3-months, OC",124/237
same,Pain Component: responder rate,"100 mg, 3-months, OC",(52.32%)
same,Pain Component: responder rate difference from placebo (unlabelled line),"100 mg, 3-months, OC",13.92%
same,SF36 PCS Component: m/n = # of responders/# of patients included,"100 mg, 3-months, OC",108/263
same,SF36 PCS Component: responder rate,"100 mg, 3-months, OC",(41.06%)
same,SF36 PCS Component: responder rate difference from placebo (unlabelled line),"100 mg, 3-months, OC",11.40%
same,"time-weighted average (AUC) of SF-36 PCS Scores, Difference from Placebo","100 mg, LOCF",16.78
same,"time-weighted average (AUC) of SF-36 PCS Scores, LS Mean","100 mg, LOCF",425.22
same,"time-weighted average (AUC) of SF-36 PCS Scores, Difference from Placebo","100 mg, OC",20.22
same,"time-weighted average (AUC) of SF-36 PCS Scores, LS Mean","100 mg, OC",437.91
same,Mean Change from Baseline in GHP SF-36 domain score,"100 mg, Tx 15, Observed Cohort",6.0
same,Mean Change from Baseline in PAIN SF-36 domain score,"100 mg, Tx 15, Observed Cohort",15.9
same,Mean Change from Baseline in PCS Score at Tx 15,"100 mg, Tx 15, Observed Cohort",5.0
same,Mean Change from Baseline in PFI SF-36 domain score,"100 mg, Tx 15, Observed Cohort",6.8
same,Mean Change from Baseline in ROLP SF-36 domain score,"100 mg, Tx 15, Observed Cohort",13.7
same,"time-weighted average (AUC) of SF-36 PCS Scores, Mean",[1],423.86
same,"time-weighted average (AUC) of SF-36 PCS Scores, Median",[1],418.2
same,"time-weighted average (AUC) of SF-36 PCS Scores, Mean","100 mg, Visits Tx3-Tx15, OC, intent to treat",435.76

# — patent US20080293820A1, “METHODS FOR IMPROVING PHYSICAL FUNCTION IN FIBROMYALGIA” (Cypress Bioscience, Inc., priority 2007, published 2008)
